Assay results reported in the NIST ThermoML archive (doi:10.1016/j.fluid.2018.09.024).
Numbers after ± are expanded uncertainties.

Assay: activity coefficient (dimensionless); of the first substance listed, at infinite dilution; xn = mol fraction of the nth substance listed
Conditions: 101.33 kPa, Liquid, Chromatography, x1 = 0

Row | SMILES | activity coefficient (318.15 K) | activity coefficient (328.15 K) | activity coefficient (338.15 K) | activity coefficient (348.15 K) | activity coefficient (358.15 K) | activity coefficient (368.15 K) | activity coefficient (378.15 K)
1 | CCCCCCCC [octane] + CCCCCCCCCCCC[N+](C)(C)CCOc1ccccc1.O=S(=O)([N-]S(=O)(=O)C(F)(F)F)C(F)(F)F | 4.05 ± 0.28 | 4.14 ± 0.28 | 4.23 ± 0.29 | 4.32 ± 0.29 | 4.41 ± 0.3 | 4.5 ± 0.31 | 
2 | CCO [ethanol] + CCCCCCCCCCCC[N+](C)(C)CCOc1ccccc1.N#C[N-]C#N |  | 0.411 ± 0.034 | 0.421 ± 0.035 | 0.429 ± 0.035 | 0.438 ± 0.035 | 0.446 ± 0.036 | 0.453 ± 0.036
3 | C1CCCCCCC1 [cyclooctane] + CCCCCCCCCCCC[N+](C)(C)CCOc1ccccc1.O=S(=O)([N-]S(=O)(=O)C(F)(F)F)C(F)(F)F | 2.57 ± 0.17 | 2.61 ± 0.18 | 2.65 ± 0.18 | 2.68 ± 0.18 | 2.71 ± 0.18 | 2.75 ± 0.19 | 
4 | COC(C)=O [methyl ethanoate] + CCCCCCCCCCCC[N+](C)(C)CCOc1ccccc1.O=S(=O)([N-]S(=O)(=O)C(F)(F)F)C(F)(F)F | 0.474 ± 0.037 | 0.503 ± 0.038 | 0.534 ± 0.039 | 0.563 ± 0.04 | 0.595 ± 0.042 | 0.628 ± 0.043 | 
5 | CCCCCO [pentan-1-ol] + CCCCCCCCCCCC[N+](C)(C)CCOc1ccccc1.O=S(=O)([N-]S(=O)(=O)C(F)(F)F)C(F)(F)F | 1.34 ± 0.09 | 1.31 ± 0.09 | 1.27 ± 0.08 | 1.24 ± 0.08 | 1.22 ± 0.08 | 1.19 ± 0.08 | 
6 | C1CCOC1 [tetrahydrofuran] + CCCCCCCCCCCC[N+](C)(C)CCOc1ccccc1.N#C[N-]C#N |  | 0.704 ± 0.047 | 0.726 ± 0.048 | 0.749 ± 0.049 | 0.77 ± 0.05 | 0.791 ± 0.051 | 0.81 ± 0.052
7 | CCO [ethanol] + CCCCCCCCCCCC[N+](C)(C)CCOc1ccccc1.O=S(=O)([N-]S(=O)(=O)C(F)(F)F)C(F)(F)F | 1.24 ± 0.08 | 1.2 ± 0.08 | 1.16 ± 0.07 | 1.12 ± 0.07 | 1.09 ± 0.07 | 1.06 ± 0.07 | 
8 | CO [methanol] + CCCCCCCCCCCC[N+](C)(C)CCOc1ccccc1.N#C[N-]C#N |  | 0.316 ± 0.031 | 0.324 ± 0.032 | 0.332 ± 0.032 | 0.339 ± 0.032 | 0.346 ± 0.032 | 0.353 ± 0.032
9 | C#CCCCC [1-hexyne] + CCCCCCCCCCCC[N+](C)(C)CCOc1ccccc1.N#C[N-]C#N |  | 1.66 ± 0.11 | 1.74 ± 0.12 | 1.82 ± 0.12 | 1.88 ± 0.13 | 1.95 ± 0.13 | 2.02 ± 0.14
10 | c1ccsc1 [thiophene] + CCCCCCCCCCCC[N+](C)(C)CCOc1ccccc1.N#C[N-]C#N |  | 0.648 ± 0.044 | 0.674 ± 0.046 | 0.699 ± 0.047 | 0.724 ± 0.048 | 0.749 ± 0.049 | 0.773 ± 0.051
11 | C1=CCCCC1 [cyclohexene] + CCCCCCCCCCCC[N+](C)(C)CCOc1ccccc1.N#C[N-]C#N |  | 2.16 ± 0.15 | 2.19 ± 0.15 | 2.22 ± 0.15 | 2.26 ± 0.15 | 2.29 ± 0.16 | 2.31 ± 0.16
12 | Cc1ccc(C)cc1 [1,4-dimethylbenzene] + CCCCCCCCCCCC[N+](C)(C)CCOc1ccccc1.O=S(=O)([N-]S(=O)(=O)C(F)(F)F)C(F)(F)F | 0.861 ± 0.055 | 0.916 ± 0.058 | 0.967 ± 0.061 | 1.02 ± 0.06 | 1.08 ± 0.07 | 1.14 ± 0.07 | 
13 | CCOCC [diethyl ether] + CCCCCCCCCCCC[N+](C)(C)CCOc1ccccc1.O=S(=O)([N-]S(=O)(=O)C(F)(F)F)C(F)(F)F | 1.06 ± 0.07 | 1.12 ± 0.07 | 1.18 ± 0.08 | 1.24 ± 0.08 | 1.3 ± 0.08 | 1.36 ± 0.09 | 
14 | C#CCCCCC [1-heptyne] + CCCCCCCCCCCC[N+](C)(C)CCOc1ccccc1.N#C[N-]C#N |  | 1.93 ± 0.13 | 2.03 ± 0.14 | 2.12 ± 0.14 | 2.21 ± 0.15 | 2.3 ± 0.16 | 2.4 ± 0.16
15 | CC(C)=O [acetone] + CCCCCCCCCCCC[N+](C)(C)CCOc1ccccc1.N#C[N-]C#N |  | 0.721 ± 0.048 | 0.745 ± 0.049 | 0.767 ± 0.05 | 0.791 ± 0.051 | 0.813 ± 0.053 | 0.834 ± 0.054
16 | CCCCCCCCCC [decane] + CCCCCCCCCCCC[N+](C)(C)CCOc1ccccc1.N#C[N-]C#N |  | 9.02 ± 0.62 | 9.17 ± 0.63 | 9.31 ± 0.64 | 9.45 ± 0.64 | 9.6 ± 0.65 | 9.75 ± 0.67

Row | SMILES | activity coefficient (318.15 K) | activity coefficient (328.15 K) | activity coefficient (338.15 K) | activity coefficient (348.15 K) | activity coefficient (358.15 K) | activity coefficient (368.15 K) | activity coefficient (378.15 K)
17 | CCCC=O [butanal] + CCCCCCCCCCCC[N+](C)(C)CCOc1ccccc1.N#C[N-]C#N |  | 0.766 ± 0.05 | 0.779 ± 0.051 | 0.79 ± 0.051 | 0.803 ± 0.052 | 0.816 ± 0.053 | 0.828 ± 0.053
18 | C=CCCCCC [1-heptene] + CCCCCCCCCCCC[N+](C)(C)CCOc1ccccc1.O=S(=O)([N-]S(=O)(=O)C(F)(F)F)C(F)(F)F | 2.5 ± 0.17 | 2.59 ± 0.18 | 2.67 ± 0.18 | 2.76 ± 0.19 | 2.84 ± 0.19 | 2.92 ± 0.2 | 
19 | CCOCC [diethyl ether] + CCCCCCCCCCCC[N+](C)(C)CCOc1ccccc1.N#C[N-]C#N |  | 2.17 ± 0.15 | 2.22 ± 0.15 | 2.28 ± 0.16 | 2.34 ± 0.16 | 2.39 ± 0.16 | 2.44 ± 0.17
20 | C1CCCCCC1 [cycloheptane] + CCCCCCCCCCCC[N+](C)(C)CCOc1ccccc1.N#C[N-]C#N |  | 3.26 ± 0.22 | 3.29 ± 0.22 | 3.31 ± 0.23 | 3.34 ± 0.23 | 3.37 ± 0.23 | 3.39 ± 0.23
21 | CCCC(=O)OC [methyl butanoate] + CCCCCCCCCCCC[N+](C)(C)CCOc1ccccc1.N#C[N-]C#N |  | 1.29 ± 0.08 | 1.34 ± 0.09 | 1.38 ± 0.09 | 1.42 ± 0.09 | 1.46 ± 0.1 | 1.5 ± 0.1
22 | C#CCCCC [1-hexyne] + CCCCCCCCCCCC[N+](C)(C)CCOc1ccccc1.O=S(=O)([N-]S(=O)(=O)C(F)(F)F)C(F)(F)F | 1.26 ± 0.08 | 1.33 ± 0.09 | 1.39 ± 0.09 | 1.45 ± 0.1 | 1.51 ± 0.1 | 1.57 ± 0.1 | 
23 | C1=CCCCC1 [cyclohexene] + CCCCCCCCCCCC[N+](C)(C)CCOc1ccccc1.O=S(=O)([N-]S(=O)(=O)C(F)(F)F)C(F)(F)F | 1.47 ± 0.1 | 1.52 ± 0.1 | 1.56 ± 0.1 | 1.61 ± 0.11 | 1.65 ± 0.11 | 1.69 ± 0.11 | 
24 | CCCO [propan-1-ol] + CCCCCCCCCCCC[N+](C)(C)CCOc1ccccc1.O=S(=O)([N-]S(=O)(=O)C(F)(F)F)C(F)(F)F | 1.28 ± 0.08 | 1.24 ± 0.08 | 1.2 ± 0.08 | 1.17 ± 0.07 | 1.14 ± 0.07 | 1.11 ± 0.07 | 
25 | CC(C)O [propan-2-ol] + CCCCCCCCCCCC[N+](C)(C)CCOc1ccccc1.N#C[N-]C#N |  | 0.494 ± 0.038 | 0.504 ± 0.038 | 0.512 ± 0.038 | 0.52 ± 0.039 | 0.528 ± 0.039 | 0.535 ± 0.039
26 | CCCCCCCCCC [decane] + CCCCCCCCCCCC[N+](C)(C)CCOc1ccccc1.O=S(=O)([N-]S(=O)(=O)C(F)(F)F)C(F)(F)F | 5.72 ± 0.39 | 5.8 ± 0.4 | 5.87 ± 0.4 | 5.92 ± 0.4 | 5.98 ± 0.41 | 6.03 ± 0.41 | 
27 | COC(C)=O [methyl ethanoate] + CCCCCCCCCCCC[N+](C)(C)CCOc1ccccc1.N#C[N-]C#N |  | 1.03 ± 0.06 | 1.06 ± 0.07 | 1.09 ± 0.07 | 1.12 ± 0.07 | 1.14 ± 0.07 | 1.17 ± 0.07
28 | CC(C)CC(C)(C)C [2,2,4-trimethylpentane] + CCCCCCCCCCCC[N+](C)(C)CCOc1ccccc1.O=S(=O)([N-]S(=O)(=O)C(F)(F)F)C(F)(F)F | 3.66 ± 0.25 | 3.72 ± 0.25 | 3.77 ± 0.26 | 3.82 ± 0.26 | 3.86 ± 0.26 | 3.9 ± 0.27 | 
29 | C=CCCCCCCCC [1-decene] + CCCCCCCCCCCC[N+](C)(C)CCOc1ccccc1.O=S(=O)([N-]S(=O)(=O)C(F)(F)F)C(F)(F)F | 4.02 ± 0.27 | 4.15 ± 0.28 | 4.27 ± 0.29 | 4.4 ± 0.3 | 4.52 ± 0.31 | 4.63 ± 0.32 | 
30 | C=CCCCCCC [oct-1-ene] + CCCCCCCCCCCC[N+](C)(C)CCOc1ccccc1.O=S(=O)([N-]S(=O)(=O)C(F)(F)F)C(F)(F)F | 2.97 ± 0.2 | 3.06 ± 0.21 | 3.14 ± 0.21 | 3.23 ± 0.22 | 3.32 ± 0.23 | 3.39 ± 0.23 | 
31 | C=CCCCC [hex-1-ene] + CCCCCCCCCCCC[N+](C)(C)CCOc1ccccc1.N#C[N-]C#N |  | 3.59 ± 0.24 | 3.68 ± 0.25 | 3.76 ± 0.26 | 3.84 ± 0.26 | 3.9 ± 0.27 | 3.99 ± 0.27
